From article PMC12022973, “Proteomimetic Strategy for the Modulation of Intrinsically Disordered Protein MYC” (Journal of the American Chemical Society, 2025) come the findings set out here.

In experiment [1] the target is T1, recombinant human MYC^353–437 protein (His6-MYC^353–437) (Homo sapiens, UniProt P01106).
T1 construct: recombinant human MYC^353–437 protein; made in house; host or cells: E. coli BL21(DE3), pET151-D-TOPO-cMyc vector
The experiment can be described thus: Fluorescence polarization direct binding of fluorescein-labeled CHDs to His6-MYC353-437. The following applies: FP direct binding; 15 nM FITC-labeled peptide; His6-MYC serial dilutions from 10 μM; 1X PBS, 1 mM DTT, 5% glycerol, 0.1% pluronic acid, pH 6.7; 25 °C; triplicate; MYC aggregates above 5 μM; read-out: Binding Affinity MYC^353-436, Kd. Here is the method:
(§1) pET151-D-TOPO-cMyc vector was kindly provided by Dr. Edward Prochownik from the
(§2) Department of Pediatrics at UPMC Children’s Hospital of Pittsburgh. Expression and purification
(§3) of Myc353-437 were performed using an established protocol with minor modifications.7 BL21(DE3)
(§4) cells were used to express recombinant Myc353-437 protein. Bacteria were grown at 37 °C to OD600
(§5) of 0.8 followed by 1 mM IPTG induction and 16-18h growth at RT. Cells were harvested via
(§6) centrifugation at 4,000 rpm at 4 °C and the pellet was resuspended in 10 mL of lysis buffer (8 M
(§7) urea, 100 mM NaH2PO4, 10 mM Tris HCl, pH 8) supplemented with protease inhibitor cocktail
(§8) (PierceTM Protease Inhibitor Tablets) and benzonase nuclease. Suspensions were sonicated on
(§9) ice using a Branson Cell Disruptor 200 and centrifuged at 12,000 rpm for 45 min at 4 °C. Clarified
(§10) lysate was applied to a column containing pre-equilibrated HisPur Ni-NTA Superflow Agarose
(§11) (ThermoFisher Scientific) for overnight at 4 °C. The resin beads were washed with 10 mL of
(§12) additional lysis buffer followed by three washes of 10 mL wash buffer (8 M urea, 100 mM
NaH2PO4, 10 mM Tris HCl, 10 mM imidazole). The target protein was eluted with elution buffer (8
M urea, 100 mM NaH2PO4, 10 mM Tris HCl, 250 mM imidazole) and buffer exchanged into 150
mM NaCl, 50 mM Tris HCl, 5% glycerol, pH 6.7. Protein was concentrated by ultra-filtration (3000
MWCO; Amicon Ultra-15 Centrifugal Filter units from EMD Millipore) followed by TEV cleavage
(1:100 w/w of protease to target protein) in 150 mM NaCl, 50 mM Tris HCl, 5% glycerol, pH 6.7
for 24 hrs at 4 °C. The cleaved protein is further purified by reverse-phase HPLC (gradient 10-60
acetonitrile/water with 0.1% TFA over 35 min) to remove TEV protease and un-cleaved protein.
Purified Myc353-437 was lyophilized and stored at -20 °C. Myc353-437 identity was characterized by
(§13) Fluorescence Polarization Binding Assay
(§14) The relative affinities of FITC-CHDMax-1 to His6-Myc353-436 and full-length His6-Max were
(§15) determined using fluorescence polarization-based direct binding assay. The polarization
(§16) experiments were performed using a DTX 880 Multimode Detector (Beckman) at 25 °C with
(§17) excitation and emission wavelengths of 485 and 525 nm, respectively. Each polarization
(§18) experiment was performed in a 96-well round bottom plate (Greiner) in assay buffer: 1X PBS, 1
(§19) mM DTT, 5% glycerol, 0.1% pluronic acid, pH 6.7. The binding affinity (KD) values reported for
(§20) each peptide are from experiments performed in triplicate. Raw values were fit to a sigmoidal
(§21) dose-response nonlinear regression model in GraphPad Prism 6.0.
(§22) All binding experiments with FITC-labeled peptides to His6-Myc353-436 or His6-Max were performed
(§23) under the same conditions. Briefly, serial dilutions of His6-Myc353-436 and His6-Max were made
(§24) from 10 μM into 15 nM of FITC-labeled peptide in assay buffer. KD was determined using the
(§25) KD1 = (RT*(1-FSB) + LST*FSB2)/FSB-LST
(§26) RT = Total concentration of His6-Myc353-436 or His6-Max
(§27) LST = Total concentration of FITC-labeled peptide
(§28) FSB = Fraction of bound FITC-labeled peptide
A general note: In fluorescence polarisation assays a small probe gives low polarisation when free and higher when bound to something large.

The target of experiment [2] is T2, full-length His6-Max (MAX^1-160) (Homo sapiens, UniProt P61244).
T2 construct: N.B. (MAX^1-160)
T2 sequence (P61244 whole entry): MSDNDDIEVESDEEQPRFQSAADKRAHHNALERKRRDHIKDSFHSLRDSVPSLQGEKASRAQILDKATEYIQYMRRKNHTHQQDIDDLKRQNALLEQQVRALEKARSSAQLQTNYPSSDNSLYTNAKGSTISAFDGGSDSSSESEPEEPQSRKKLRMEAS
The experiment can be described thus: Fluorescence polarization direct binding to His6-MAX. Conditions: FP direct binding; 15 nM FITC-labeled peptide; His6-MAX from 10 μM; 1X PBS, 1 mM DTT, 5% glycerol, 0.1% pluronic acid, pH 6.7; 25 °C. How it is done: as §13, §14, §15, §16, §17, §18, §19, §20, §21, §22, §23, §24, §25, §26, §27, §28

In a further experiment the target is T3, MYC/MAX complex (Homo sapiens, UniProt P01106).
T3 construct: we used recombinant MYC protein (MYC^353–437); His6 (N)
T3 sequence (P01106 368-452): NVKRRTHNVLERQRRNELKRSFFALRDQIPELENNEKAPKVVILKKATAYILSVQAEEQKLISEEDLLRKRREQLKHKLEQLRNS
T3 sequence (P61244 whole entry partner): as the sequence (P61244 whole entry) above
Kind of experiment: Fluorescence polarization direct binding to the MYC/MAX complex. Conditions: FP direct binding of fluorescein-labeled peptide to preformed MYC/MAX heterodimer; read-out: CHD^Max-1 Binding Affinity, Kd (MYC/MAX). Here is the method: as §1, §2, §3, §4, §5, §6, §7, §8, §9, §10, §11, §12
NaH2PO4, 10 mM Tris HCl, 10 mM imidazole). The target protein was eluted with elution buffer (8 […]
Fluorescence Polarization Binding Assay […]
determined using fluorescence polarization-based direct binding assay. […]
from 10 μM into 15 nM of FITC-labeled peptide in assay buffer. KD was determined using the […]

Starred links: 1 amine or outer side, 2 acyl side, 3 side chain; linkers in the order of their positions; H or OH if unused. Positions of bridges follow the written chain, without caps; N, C: chain ends. Residues, ends and D or L forms follow the SMILES beside them. Chains are numbered I, II in the order given. X1 = c1cc(C[*:1])ccc1COCc1ccc(C[*:2])cc1

T1 sequence (P01106 368-452): as the sequence (P01106 368-452) above

As for `CC[C@H](C)[C@H](NC(=O)[C@H](CCCCN)NC(=O)[C@H](CCC(=O)O)NC(=O)[C@H](CCCNC(=N)N)NC(=O)[C@H](CC(C)C)NC(C)=O)C(=O)N[C@@H](C)C(=O)N[C@H](C(=O)N[C@@H](CC(C)C)C(=O)N[C@@H](CCC(N)=O)C(=O)N[C@@H](Cc1c[nH]c2ccccc12)C(=O)N[C@@H](CSCc1ccc(COCc2ccc(CSC[C@H](NC(=O)[C@H](CC(C)C)NC(=O)[C@H](CCC(=O)O)NC(=O)[C@H](CCC(=O)O)NC(=O)[C@@H](NC(=O)[C@H](CCC(=O)O)NC(=O)[C@H](Cc3c[nH]c4ccccc34)NC(=O)[C@H](CCC(N)=O)NC(=O)[C@H](Cc3c[nH]cn3)NC(=O)[C@@H](NC(=O)[C@H](CCC(=O)O)NC(=O)[C@H](CC(N)=O)NC(=O)[C@H](CCCCN)NC(=O)[C@H](CCCNC(=N)N)NC(=O)[C@H](CCCNC(=N)N)NC(=O)[C@H](CC(C)C)NC(C)=O)[C@@H](C)O)[C@@H](C)CC)C(N)=O)cc2)cc1)C(=O)N[C@H](C(=O)N[C@@H](CCC(=O)O)C(=O)N[C@@H](CCC(=O)O)C(=O)N[C@@H](CC(C)C)C(=O)N[C@@H](CCCNC(=N)N)C(=O)N[C@@H](CCCCN)C(N)=O)[C@@H](C)CC)[C@@H](C)O` [CHD^Max-1] (I: Ac-LREKIATLQWCIEELRK-NH2 / II: Ac-LRRKNETHQWEIEELC-NH2; linker I:11-II:16 via X1), the Kd in experiment [1] was 350 ± 17 nM; on MYC/MAX complex, 460 ± 150 nM. For the same compound, in experiment [2], the “CHD^Max-1 Binding Affinity, Kd (MAX^1-160)” value is given as “N.B”.
